The text below walks through data of PMC12250084 (International Journal of Molecular Sciences, 2025).

The target of one experiment is S protein of HCoV-229E (Human coronavirus 229E, UniProt P15423). As to the kind of experiment: SPR, Reichert4, CM5 chip, protein immobilised. The format is binding.
The target in another experiment is S protein of HCoV-OC43 (Human coronavirus OC43, UniProt P36334). As to the kind of experiment: SPR, Reichert4, CM5 chip, protein immobilised. The format is binding. Background: In SPR one partner is held on a chip, and binding of the other changes the refractive index at the surface.
S protein of HCoV-OC43, sequence (P36334 14-1353): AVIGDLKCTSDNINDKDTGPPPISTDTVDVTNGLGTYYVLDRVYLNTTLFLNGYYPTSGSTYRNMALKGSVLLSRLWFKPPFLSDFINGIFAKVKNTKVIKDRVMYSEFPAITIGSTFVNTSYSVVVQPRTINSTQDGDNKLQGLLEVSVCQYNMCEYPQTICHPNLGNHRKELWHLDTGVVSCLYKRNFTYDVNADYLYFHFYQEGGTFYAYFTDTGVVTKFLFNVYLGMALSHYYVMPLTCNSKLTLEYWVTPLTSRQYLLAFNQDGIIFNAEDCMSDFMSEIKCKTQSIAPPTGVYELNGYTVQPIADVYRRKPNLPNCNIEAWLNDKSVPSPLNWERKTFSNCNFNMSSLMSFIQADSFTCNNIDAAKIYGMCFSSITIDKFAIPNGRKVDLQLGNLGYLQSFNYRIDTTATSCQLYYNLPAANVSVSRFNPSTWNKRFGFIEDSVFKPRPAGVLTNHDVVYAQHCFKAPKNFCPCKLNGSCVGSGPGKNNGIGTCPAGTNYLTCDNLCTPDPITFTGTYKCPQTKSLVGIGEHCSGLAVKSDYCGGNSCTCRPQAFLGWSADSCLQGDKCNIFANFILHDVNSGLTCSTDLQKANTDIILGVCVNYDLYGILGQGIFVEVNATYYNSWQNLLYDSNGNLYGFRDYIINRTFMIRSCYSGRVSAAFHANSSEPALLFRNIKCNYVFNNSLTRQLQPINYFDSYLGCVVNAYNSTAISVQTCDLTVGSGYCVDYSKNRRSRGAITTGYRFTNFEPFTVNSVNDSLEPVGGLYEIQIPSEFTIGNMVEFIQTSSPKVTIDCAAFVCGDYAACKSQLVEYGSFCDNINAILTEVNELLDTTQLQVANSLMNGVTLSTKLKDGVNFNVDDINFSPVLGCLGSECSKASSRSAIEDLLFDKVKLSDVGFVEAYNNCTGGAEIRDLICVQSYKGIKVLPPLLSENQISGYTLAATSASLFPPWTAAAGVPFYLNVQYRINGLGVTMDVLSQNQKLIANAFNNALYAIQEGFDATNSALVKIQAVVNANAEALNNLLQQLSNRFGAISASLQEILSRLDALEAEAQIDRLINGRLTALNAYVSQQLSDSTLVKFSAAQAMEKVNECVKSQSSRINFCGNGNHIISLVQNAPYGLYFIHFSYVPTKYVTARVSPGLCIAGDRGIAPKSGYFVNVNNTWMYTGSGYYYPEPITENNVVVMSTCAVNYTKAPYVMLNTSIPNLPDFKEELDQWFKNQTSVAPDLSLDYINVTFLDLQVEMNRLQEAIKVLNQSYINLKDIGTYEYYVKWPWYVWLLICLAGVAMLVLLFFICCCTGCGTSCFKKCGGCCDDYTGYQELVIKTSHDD

S protein of HCoV-229E, sequence (P15423 16-1173): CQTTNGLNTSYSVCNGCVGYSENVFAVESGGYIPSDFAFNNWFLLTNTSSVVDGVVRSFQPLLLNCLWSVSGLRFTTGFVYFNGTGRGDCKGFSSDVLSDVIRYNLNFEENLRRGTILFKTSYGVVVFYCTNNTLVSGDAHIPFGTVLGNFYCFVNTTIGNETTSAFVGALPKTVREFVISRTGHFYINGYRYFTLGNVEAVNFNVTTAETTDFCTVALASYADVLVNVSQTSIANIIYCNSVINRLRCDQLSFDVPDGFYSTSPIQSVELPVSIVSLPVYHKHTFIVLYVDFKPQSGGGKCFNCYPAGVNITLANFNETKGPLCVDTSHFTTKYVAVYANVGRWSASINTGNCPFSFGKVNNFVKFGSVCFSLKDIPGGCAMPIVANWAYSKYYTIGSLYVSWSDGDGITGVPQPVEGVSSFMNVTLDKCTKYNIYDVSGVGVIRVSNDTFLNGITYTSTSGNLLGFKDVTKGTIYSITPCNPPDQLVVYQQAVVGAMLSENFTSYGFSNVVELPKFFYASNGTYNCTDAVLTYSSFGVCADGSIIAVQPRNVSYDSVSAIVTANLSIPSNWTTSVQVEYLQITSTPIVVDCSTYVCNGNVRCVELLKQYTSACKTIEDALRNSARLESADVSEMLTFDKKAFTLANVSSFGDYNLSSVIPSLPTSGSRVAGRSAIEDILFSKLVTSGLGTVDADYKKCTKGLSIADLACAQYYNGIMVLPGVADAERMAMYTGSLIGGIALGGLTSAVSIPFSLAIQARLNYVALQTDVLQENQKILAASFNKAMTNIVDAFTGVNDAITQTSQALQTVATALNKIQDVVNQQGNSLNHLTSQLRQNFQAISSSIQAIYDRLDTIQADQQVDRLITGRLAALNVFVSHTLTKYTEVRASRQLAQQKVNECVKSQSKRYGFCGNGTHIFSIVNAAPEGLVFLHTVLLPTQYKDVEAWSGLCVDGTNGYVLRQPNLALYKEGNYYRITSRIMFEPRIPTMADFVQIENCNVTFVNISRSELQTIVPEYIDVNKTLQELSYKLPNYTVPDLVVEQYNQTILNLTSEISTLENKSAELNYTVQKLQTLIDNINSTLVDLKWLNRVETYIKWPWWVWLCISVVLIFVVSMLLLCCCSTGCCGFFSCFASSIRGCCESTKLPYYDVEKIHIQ

The Kd is a measure of binding affinity in units of concentration. A lower Kd goes with higher affinity. Consider `CC1(C)[C@@H](O[C@H]2O[C@H](C(=O)O)[C@@H](O)[C@H](O)[C@H]2O[C@@H]2O[C@H](C(=O)O)[C@@H](O)[C@H](O)[C@H]2O)CC[C@]2(C)[C@H]3C(=O)C=C4[C@@H]5C[C@@](C)(C(=O)O)CC[C@]5(C)CC[C@@]4(C)[C@]3(C)CC[C@@H]12` [Diammonium glycyrrhizinate], for which the dissociation constant Kd is 37.9 µM at S protein of HCoV-229E and 5.76 µM on S protein of HCoV-OC43.
